Test results as given in paper PMC9486805, “Identification of a Phage Display-Derived Peptide Interacting with the N-Terminal Region of Factor VII Activating Protease (FSAP) Enables Characterization of Zymogen Activation” (ACS Chemical Biology, 2022).

Legend:
[1] = test system: light chain/serine protease domain (SPD); experiment: Binding of biotinylated peptides to captured recombinant FSAP light chain/SPD; design: species or system human; conditions: peptide 1 μM; triplicate wells (Fig 2E)
Protocol: (§1) Figure 2 NNKC9/41 interacts with the NTR of pro-FSAP: (A) To determine peptide binding to pro-FSAP, wells were coated with 2 μg/mL pro-FSAP and biotinylated NNKC9/41 and NNK11/189 and their respective scrambled controls were added in different concentration (0–5 μM). Peroxidase-labeled streptavidin was used to detect peptide binding. (B) Same procedure as in (A) except that different proteins were immobilized and biotinylated NNKC9/41 (0–30 μM) was added and its binding was measured. (C) Schematic structure of pro-FSAP with the heavy chain consisting of an NTR, three EGF domains, and a kringle domain, followed by the light chain harboring the serine protease domain (SPD). The binding domains of antibodies used in this study are indicated. (D) Recombinant complete heavy chain (heavy) and truncated heavy chain variants ΔNTR, ΔEGF1, ΔEGF2, ΔEGF3, and ΔKringle were expressed in bacteria and analyzed by sodium dodecyl sulfate poly(acrylamide) gel electrophoresis (SDS-PAGE) followed by Coomassie staining. […] Biotinylated NNKC9/41 or the scrambled control peptide was added at 1 μM and peptide binding was measured with peroxidase-linked streptavidin. […]
(§2) Wells were coated with anti-FSAP polyclonal antibodies (5 μg/mL). […] Subsequently, the plates were washed, and bound peptides were detected with peroxidase-coupled streptavidin. […]

plasma proteins = experiment: Binding of biotinylated NNKC9/41 to immobilized plasma proteins; conditions: Fig 2B, as summarised
Protocol: as §1, §2

pro-FSAP in WT/MI plasma = experiment: Substrate turnover in WT/MI plasma; assay type: biochemical, human; conditions: WT/MI citrate plasma 1:12; 25 μM (Fig 6A)
Protocol: (§3) Figure 6 Pro-FSAP activation and clotting in plasma by NNKC9/41: (A) citrate plasma (1:12 dilution) from donors with WT/WT, WT/MI, and MI/MI genotypes and WT-FSAP-deficient plasma (FSAP-DP) were compared. Substrate turnover was monitored after addition of NNKC9/41 or the Ser–Ser linear peptide (25 μM each). Results are shown as mean + range of duplicate wells. (B) Pooled prothrombin-deficient citrated plasma (1:5 dilution) was recalcified with 10 mM CaCl2 and incubated with NNKC9/41 or scrambled control peptide (0–25 μM each) for 60 min at 37 °C in the presence or absence of the FSAP-inhibitory MA-FSAP-38C7 (5 μg/mL). Initiation of clotting was achieved by adding the tissue factor/phospholipid and prothrombin complex concentrate. Clotting time was measured as diluted prothrombin time (dPT) in seconds. Data are the mean of three independent experiments. The relative dPT in % of the untreated control is presented as mean ± standard error (SE) (*p <0.05, two-way analysis of variance (ANOVA) and Bonferroni post-test).
Human citrate plasma (0.38% w/v) or hirudin plasma (25 μg/mL Lepirudin) was obtained from five healthy donors. […] Hydrolysis of the fluorogenic substrates was measured using a Synergy HI plate reader with excitation at 320 nm and emission at 460 nm at 37 °C for 60 min. The maximal velocity was calculated from the linear part of the progress curve. […]

factor X = experiment: Specificity towards pro-enzymes: factor X; assay type: biochemical; conditions: Factor X 50 nM; peptide 0-50 μM; S-2765 (Fig S7)
Protocol: Fig S7. […]
(§4) Bend, IN, USA) except plasminogen and FSAP, which were isolated in house; and pro-uPA was from Grünenthal (Stolberg, Germany). All chromogenic substrates were from Hyphen Biomed (Neuville Sur Oise, France). Experiments were carried out in TBS with Tween-20 (0.1 % wt/ vol) BSA (0.3% wt/vol) and CaCl2 (2 mM). Absorbance at 405 nm was measured over time and the enzyme activity is depicted was measured in duplicates (mean + or -range) and similar results were obtained in 3

[2] = test system: extrinsic pathway of coagulation; experiment: Plasma clotting assay, diluted prothrombin time (dPT); assay type: biochemical, human; conditions: prothrombin-deficient citrated plasma 1:5, 10 mM CaCl2; peptide 0–25 μM, 60 min 37 °C; three experiments (Fig 6B)
Protocol: as §3, with “The relative dPT in % of the untreated control is presented as mean ± standard error (SE) (*p <0.05, two-way analysis of variance (ANOVA) and Bonferroni post-test).” left out
Prothrombin-deficient citrated pool plasma (Haemochrom Diagnostica, diluted 1:5 in HBS, pH 7.4) was recalcified with 10 mM CaCl2 and incubated with peptides for 60 min at 37 °C in the presence or absence of the FSAP-inhibitory MA-FSAP-38C7 (5 μg/mL). […] Clot formation was measured optically at 405 nm in a plate reader (Tecan, Crailsheim, Germany). The time from starting the reaction to 50% maximum clot turbidity was measured as diluted prothrombin time (dPT) in seconds.

Factor XIIa = experiment: Specificity: factor XIIa; assay type: biochemical; conditions: Factor XIIa 20 nM; peptide 0-50 μM; CS31 (Fig S7)
Protocol: Fig S7. Specificity of NNKC9/41 towards other pro-enzymes: Zymogens and their respective active enzymes were incubated with NNKC9/41 or Ser-Ser linear peptide (0-50 μM) and the enzyme activity was monitored using respective chromogenic substrates. Activity of Factor XII(100 nM) and Factor XIIa (20 nM) was measured with the substrate CS31 (1000 µM). Pro-thrombin (100 nM) and thrombin (20 nM) […]
as §4

Sequence: CRGAMWMYKRC [NNKC9/41]
- peptide binding to light chain/SPD [1]: very low binding
- binding to other plasma proteins (plasma proteins): did not bind to any other plasma proteins tested, except FSAP
- substrate turnover (pro-FSAP in WT/MI plasma): low turnover
- effect on activity (factor X): did not influence the activity
- clotting time (diluted prothrombin time) [2]: significant effect on lowering the clotting time
- effect on activity (Factor XIIa): did not influence the activity
